The results in this text go back to patent US9097702B2, “Pathologically relevant tumor microenvironments for high-throughput drug screening” (Cornell University, priority 2008, dated 2015).

Assay [1] has as its system MDA-MB231 breast cancer cells. In words: MDA-MB231 viability in conventional 2-D culture. The class given is cell-based, human. How it is done: For the drug testing studies, different doses of two frequently utilized chemotherapeutic drugs were first evaluated with regard to their ability to reduce breast cancer cell viability in conventional 2-D culture.
(§1) Consequently, all subsequent drug testing studies were performed with doxorubicin.

The test system of assay [2] is MDA-MB231 breast cancer cells. In words: Doxorubicin responsiveness in 3-D cultures within RGD-modified alginate gels versus 2-D monolayer. The class given is cell-based, human. The following applies: 3-D cultures within RGD-modified alginate gels vs 2-D monolayer (FIG. 5C). The method, then:
To examine tumor malignancy and efficacy of anti-cancer drugs in response to enhanced mechanical stiffness, MDA-MB231 were incorporated in 3-D RGD-modified alginate cultures and were evaluated for proliferation, secretion of a molecular marker of enhanced malignancy (i.e., interleukin-8 (IL-8)), and drug responsiveness.
as §1

Take `COc1cccc2c1C(=O)c1c(O)c3c(c(O)c1C2=O)C[C@@](O)(C(=O)CO)C[C@@H]3O[C@H]1C[C@H](N)[C@H](O)[C@H](C)O1` [doxorubicin]: the “number of viable tumor cells in 2-D culture” value in assay [1] (0.5 μM, 2-D culture (FIG. 5B, right panel)) was “efficiently reduced the number of viable tumor cells”. Besides, the “efficacy of doxorubicin treatment in 3-D relative to 2-D conditions” value in assay [2] is on record as 3-D micro-environmental conditions dramatically-reduce the efficacy of doxorubicin treatment relative to 2-D conditions.

With `N.N.[Cl][Pt][Cl]` [cisplatin], in assay [1] (high doses, 2-D culture (FIG. 5B, left panel)), the “MDA-MB231 viability in 2-D culture” value is listed as “did not alter MDA-MB231 viability”.
